Assay results as given in patent US20110250135A1, “Piperazine Derivatives for Binding and Imaging Amyloid Plaques and Their Use” (Bayer Schering Pharma Aktiengesellschaft, priority 2008, published 2011).

How the values were obtained:
Aβ plaques = target: T1, Aβ plaques (Homo sapiens, UniProt P05067); assay: Autoradiographical analysis of binding to cryosections from cortex of AD patients and controls; conditions: F-18 labeled compound; Alzheimer's disease patients (AD) vs controls without Aβ plaques
T1 construct: controls without Aβ plaques; from tissue; host or cells: frontal lobe / cortex sections (frozen and paraffin) from AD patients, FTD patients and age-matched controls
How it was run: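 Frozen (18 μm) and deparaffinized paraffin (6 μm) frontal-lobe sections from Alzheimer's, frontotemporal dementia and age-matched control brains were incubated 1.5 h at room temperature with F-18 test compound at 10 Bq/μl in 25 mM Hepes pH 7.4, 0.1% BSA. Blocking used 1000-fold excess unlabeled compound; phosphoimager readout.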

[1] = Biodistribution: organ distribution of F-18 signal in mice; assay type: in vivo, male NMRI mice; conditions: for Organ distribution of F-18 signal, intestine: intestine (with content); for Organ distribution of F-18 signal, stomach: stomach (without content)
How it was run: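 Male NMRI mice (~30 g, 3 per time point) received ca. 150 kBq of the test compound i.v. via tail vein. At 2, 5, 30, 60 and 240 min, urine and feces were collected and organs and tissues taken for gamma counting. Values are decay-corrected % ID/g ± SD.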

T1 sequence (P05067 672-713 limits assumed): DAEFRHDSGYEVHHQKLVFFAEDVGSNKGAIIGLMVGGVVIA

Question: Which “autoradiographical analysis of binding to cryosections from cortex” value (Aβ plaques) does the source give for `O=C(NCC(=O)N1CCN(c2ccc(OCc3ccccc3)cc2)CC1)c1cccnc1[18F]` [Example 12c, N-{2-[4-(4-Benzyloxy-phenyl)-piperazin-1-yl]-2-oxoethyl}-2-[F-18]-fluoro-nicotinamide] here?
Answer: Specific binding in plaque-rich regions of AD samples

Question: And the “Organ distribution of F-18 signal, adrenals” value (shortened to “Organ distribution … adrenals”) ([1]; 2 min post i.v. injection)?
Answer: 6.60 % ID/g

Question: And the “Organ distribution … adrenals” value ([1]; 5 min post i.v. injection)?
Answer: 10.38 % ID/g

Question: What about the “Organ distribution … adrenals” value ([1]; 30 min post i.v. injection) of the same molecule?
Answer: 2.77 % ID/g

Question: And the “Organ distribution … adrenals” value ([1]; 60 min post i.v. injection)?
Answer: 1.55 % ID/g

Question: What about the “Organ distribution … adrenals” value ([1]; 240 min post i.v. injection) of the same molecule?
Answer: 0.40 % ID/g

Question: What about the “Organ distribution of F-18 signal, blood” value ([1]; 2 min post i.v. injection) of the same molecule?
Answer: 1.78 % ID/g

Question: And the “Organ distribution of F-18 signal, blood” value ([1]; 5 min post i.v. injection)?
Answer: 1.90 % ID/g

Question: What about the “Organ distribution of F-18 signal, blood” value ([1]; 30 min post i.v. injection) of the same molecule?
Answer: 1.30 % ID/g

Question: What about the “Organ distribution of F-18 signal, blood” value ([1]; 60 min post i.v. injection) of the same molecule?
Answer: 0.70 % ID/g

Question: And the “Organ distribution of F-18 signal, blood” value ([1]; 240 min post i.v. injection)?
Answer: 0.09 % ID/g

Question: And the “Organ distribution of F-18 signal, brain” value ([1]; 2 min post i.v. injection)?
Answer: 5.37 % ID/g

Question: What about the “Organ distribution of F-18 signal, brain” value ([1]; 5 min post i.v. injection) of the same molecule?
Answer: 4.60 % ID/g

Question: What about the “Organ distribution of F-18 signal, brain” value ([1]; 30 min post i.v. injection) of the same molecule?
Answer: 1.28 % ID/g

Question: What about the “Organ distribution of F-18 signal, brain” value ([1]; 60 min post i.v. injection) of the same molecule?
Answer: 0.60 % ID/g

Question: What about the “Organ distribution of F-18 signal, brain” value ([1]; 240 min post i.v. injection) of the same molecule?
Answer: 0.07 % ID/g

Question: And the “Organ distribution of F-18 signal, fat” value ([1]; 2 min post i.v. injection)?
Answer: 1.00 % ID/g

Question: And the “Organ distribution of F-18 signal, fat” value ([1]; 5 min post i.v. injection)?
Answer: 1.92 % ID/g

Question: And the “Organ distribution of F-18 signal, fat” value ([1]; 30 min post i.v. injection)?
Answer: 1.89 % ID/g

Question: What about the “Organ distribution of F-18 signal, fat” value ([1]; 60 min post i.v. injection) of the same molecule?
Answer: 1.29 % ID/g

Question: What about the “Organ distribution of F-18 signal, fat” value ([1]; 240 min post i.v. injection) of the same molecule?
Answer: 0.11 % ID/g

Question: And the “Organ distribution of F-18 signal, femur” value ([1]; 2 min post i.v. injection)?
Answer: 1.70 % ID/g

Question: What about the “Organ distribution of F-18 signal, femur” value ([1]; 5 min post i.v. injection) of the same molecule?
Answer: 1.63 % ID/g

Question: What about the “Organ distribution of F-18 signal, femur” value ([1]; 30 min post i.v. injection) of the same molecule?
Answer: 5.55 % ID/g

Question: And the “Organ distribution of F-18 signal, femur” value ([1]; 60 min post i.v. injection)?
Answer: 7.65 % ID/g

Question: What about the “Organ distribution of F-18 signal, femur” value ([1]; 240 min post i.v. injection) of the same molecule?
Answer: 7.96 % ID/g

Question: What about the “Organ distribution of F-18 signal, heart” value ([1]; 2 min post i.v. injection) of the same molecule?
Answer: 4.76 % ID/g

Question: What about the “Organ distribution of F-18 signal, heart” value ([1]; 5 min post i.v. injection) of the same molecule?
Answer: 4.28 % ID/g

Question: And the “Organ distribution of F-18 signal, heart” value ([1]; 30 min post i.v. injection)?
Answer: 1.52 % ID/g

Question: What about the “Organ distribution of F-18 signal, heart” value ([1]; 60 min post i.v. injection) of the same molecule?
Answer: 0.69 % ID/g

Question: And the “Organ distribution of F-18 signal, heart” value ([1]; 240 min post i.v. injection)?
Answer: 0.08 % ID/g

Question: And the “Organ distribution of F-18 signal, intestine” value (“Organ distribution … intestine” for short) ([1]; 2 min post i.v. injection)?
Answer: 1.78 % ID/g

Question: And the “Organ distribution … intestine” value ([1]; 5 min post i.v. injection)?
Answer: 2.44 % ID/g

Question: And the “Organ distribution … intestine” value ([1]; 30 min post i.v. injection)?
Answer: 6.62 % ID/g

Question: And the “Organ distribution … intestine” value ([1]; 60 min post i.v. injection)?
Answer: 8.88 % ID/g

Question: What about the “Organ distribution … intestine” value ([1]; 240 min post i.v. injection) of the same molecule?
Answer: 10.54 % ID/g

Question: And the “Organ distribution of F-18 signal, kidney” value (“Organ distribution … kidney” for short) ([1]; 2 min post i.v. injection)?
Answer: 7.70 % ID/g

Question: What about the “Organ distribution … kidney” value ([1]; 5 min post i.v. injection) of the same molecule?
Answer: 7.76 % ID/g

Question: What about the “Organ distribution … kidney” value ([1]; 30 min post i.v. injection) of the same molecule?
Answer: 7.88 % ID/g

Question: What about the “Organ distribution … kidney” value ([1]; 60 min post i.v. injection) of the same molecule?
Answer: 3.63 % ID/g

Question: What about the “Organ distribution … kidney” value ([1]; 240 min post i.v. injection) of the same molecule?
Answer: 0.58 % ID/g

Question: And the “Organ distribution of F-18 signal, liver” value ([1]; 2 min post i.v. injection)?
Answer: 5.84 % ID/g

Question: What about the “Organ distribution of F-18 signal, liver” value ([1]; 5 min post i.v. injection) of the same molecule?
Answer: 8.93 % ID/g

Question: And the “Organ distribution of F-18 signal, liver” value ([1]; 30 min post i.v. injection)?
Answer: 8.20 % ID/g

Question: What about the “Organ distribution of F-18 signal, liver” value ([1]; 60 min post i.v. injection) of the same molecule?
Answer: 6.01 % ID/g

Question: And the “Organ distribution of F-18 signal, liver” value ([1]; 240 min post i.v. injection)?
Answer: 2.40 % ID/g

Question: What about the “Organ distribution of F-18 signal, lung” value ([1]; 2 min post i.v. injection) of the same molecule?
Answer: 3.52 % ID/g

Question: And the “Organ distribution of F-18 signal, lung” value ([1]; 5 min post i.v. injection)?
Answer: 3.73 % ID/g

Question: What about the “Organ distribution of F-18 signal, lung” value ([1]; 30 min post i.v. injection) of the same molecule?
Answer: 1.78 % ID/g

Question: And the “Organ distribution of F-18 signal, lung” value ([1]; 60 min post i.v. injection)?
Answer: 0.79 % ID/g

Question: And the “Organ distribution of F-18 signal, lung” value ([1]; 240 min post i.v. injection)?
Answer: 0.15 % ID/g

Question: What about the “Organ distribution of F-18 signal, muscle” value (from here on “Organ distribution … muscle”) ([1]; 2 min post i.v. injection) of the same molecule?
Answer: 2.48 % ID/g

Question: What about the “Organ distribution … muscle” value ([1]; 5 min post i.v. injection) of the same molecule?
Answer: 17.41 % ID/g

Question: What about the “Organ distribution … muscle” value ([1]; 30 min post i.v. injection) of the same molecule?
Answer: 0.88 % ID/g

Question: What about the “Organ distribution … muscle” value ([1]; 60 min post i.v. injection) of the same molecule?
Answer: 0.47 % ID/g

Question: And the “Organ distribution … muscle” value ([1]; 240 min post i.v. injection)?
Answer: 0.06 % ID/g

Question: What about the “Organ distribution of F-18 signal, pancreas” value (from here on “Organ distribution … pancreas”) ([1]; 2 min post i.v. injection) of the same molecule?
Answer: 3.58 % ID/g

Question: What about the “Organ distribution … pancreas” value ([1]; 5 min post i.v. injection) of the same molecule?
Answer: 4.30 % ID/g

Question: And the “Organ distribution … pancreas” value ([1]; 30 min post i.v. injection)?
Answer: 1.55 % ID/g

Question: What about the “Organ distribution … pancreas” value ([1]; 60 min post i.v. injection) of the same molecule?
Answer: 0.75 % ID/g

Question: What about the “Organ distribution … pancreas” value ([1]; 240 min post i.v. injection) of the same molecule?
Answer: 0.12 % ID/g

Question: What about the “Organ distribution of F-18 signal, skin” value ([1]; 2 min post i.v. injection) of the same molecule?
Answer: 1.25 % ID/g

Question: And the “Organ distribution of F-18 signal, skin” value ([1]; 5 min post i.v. injection)?
Answer: 1.23 % ID/g

Question: And the “Organ distribution of F-18 signal, skin” value ([1]; 30 min post i.v. injection)?
Answer: 1.51 % ID/g

Question: And the “Organ distribution of F-18 signal, skin” value ([1]; 60 min post i.v. injection)?
Answer: 0.66 % ID/g

Question: And the “Organ distribution of F-18 signal, skin” value ([1]; 240 min post i.v. injection)?
Answer: 0.08 % ID/g

Question: What about the “Organ distribution of F-18 signal, spleen” value (“Organ distribution … spleen” below) ([1]; 2 min post i.v. injection) of the same molecule?
Answer: 1.32 % ID/g

Question: And the “Organ distribution … spleen” value ([1]; 5 min post i.v. injection)?
Answer: 2.08 % ID/g

Question: And the “Organ distribution … spleen” value ([1]; 30 min post i.v. injection)?
Answer: 0.87 % ID/g

Question: And the “Organ distribution … spleen” value ([1]; 60 min post i.v. injection)?
Answer: 0.42 % ID/g

Question: And the “Organ distribution … spleen” value ([1]; 240 min post i.v. injection)?
Answer: 0.06 % ID/g

Question: What about the “Organ distribution of F-18 signal, stomach” value (“Organ distribution … stomach” for short) ([1]; 2 min post i.v. injection) of the same molecule?
Answer: 3.14 % ID/g

Question: And the “Organ distribution … stomach” value ([1]; 5 min post i.v. injection)?
Answer: 3.52 % ID/g

Question: What about the “Organ distribution … stomach” value ([1]; 30 min post i.v. injection) of the same molecule?
Answer: 1.91 % ID/g

Question: What about the “Organ distribution … stomach” value ([1]; 60 min post i.v. injection) of the same molecule?
Answer: 1.89 % ID/g

Question: And the “Organ distribution … stomach” value ([1]; 240 min post i.v. injection)?
Answer: 0.71 % ID/g

Question: And the “Organ distribution of F-18 signal, tail” value ([1]; 2 min post i.v. injection)?
Answer: 12.72 % ID/g

Question: What about the “Organ distribution of F-18 signal, tail” value ([1]; 5 min post i.v. injection) of the same molecule?
Answer: 6.80 % ID/g

Question: And the “Organ distribution of F-18 signal, tail” value ([1]; 30 min post i.v. injection)?
Answer: 2.72 % ID/g

Question: What about the “Organ distribution of F-18 signal, tail” value ([1]; 60 min post i.v. injection) of the same molecule?
Answer: 3.08 % ID/g

Question: And the “Organ distribution of F-18 signal, tail” value ([1]; 240 min post i.v. injection)?
Answer: 1.30 % ID/g

Question: And the “Organ distribution of F-18 signal, testicle” value (shortened to “Organ distribution … testicle”) ([1]; 2 min post i.v. injection)?
Answer: 1.21 % ID/g

Question: And the “Organ distribution … testicle” value ([1]; 5 min post i.v. injection)?
Answer: 1.79 % ID/g

Question: And the “Organ distribution … testicle” value ([1]; 30 min post i.v. injection)?
Answer: 1.09 % ID/g

Question: And the “Organ distribution … testicle” value ([1]; 60 min post i.v. injection)?
Answer: 0.58 % ID/g

Question: And the “Organ distribution … testicle” value ([1]; 240 min post i.v. injection)?
Answer: 0.08 % ID/g

Question: And the “Organ distribution of F-18 signal, thyroid” value (“Organ distribution … thyroid” for short) ([1]; 2 min post i.v. injection)?
Answer: 3.59 % ID/g

Question: And the “Organ distribution … thyroid” value ([1]; 5 min post i.v. injection)?
Answer: 3.10 % ID/g

Question: What about the “Organ distribution … thyroid” value ([1]; 30 min post i.v. injection) of the same molecule?
Answer: 1.92 % ID/g

Question: What about the “Organ distribution … thyroid” value ([1]; 60 min post i.v. injection) of the same molecule?
Answer: 1.27 % ID/g

Question: What about the “Organ distribution … thyroid” value ([1]; 240 min post i.v. injection) of the same molecule?
Answer: 0.41 % ID/g
